Usually EC50 stands for the concentration that produces a half-maximal response. Usually IC50 stands for the point on the concentration scale where inhibition reaches its midpoint. A high value points to a need for much substance.

A short description of assay [1]: PROTAC activity at E3 ubiquitin ligase (unknown origin)/STAT5 (unknown origin) assessed as […].
Assay [2] addresses Tyrosine-protein kinase SYK (Homo sapiens, UniProt P43405). In words: Inhibition of human SYK at Py+3 pocket.

As to `CN(CCCC#Cc1cccc2c1CN(C1CCC(=O)NC1=O)C2=O)C(=O)CCN(C(=O)[C@@H]1CCCN1C(=O)[C@H](NC(=O)c1cc2cc(C(F)(F)P(=O)(O)O)ccc2s1)C(C)(C)C)c1ccc(-c2nccs2)cc1` (some centres not stated), in assay [1], the EC50 was determined as 0.1 µM.
In turn, `O=C(O)CCCCN(CCCC1CCCCC1)S(=O)(=O)/C=C/c1ccc(NC(=O)C2CCC(C(C(=O)O)C(=O)O)CC2)cc1` (configuration not stated) had an IC50 in assay [2] of 38 µM.

The values are drawn from ChEMBL document CHEMBL5329215, “Review and prospects of targeted therapies for Spleen tyrosine kinase (SYK)” (Bioorg Med Chem, 2023).
